Test results from ChEMBL document CHEMBL1154800, “TDAE-assisted synthesis of new imidazo[2,1-b]thiazole derivatives as anti-infectious agents” (2010).
In brackets after ≈: the same amount, converted by molar mass. Activity calls are given as the source filed them. The calls are words filed in the database; no cut-off is given here.

Legend:
[1] = tested on: Staphylococcus aureus; assay: Antimicrobial activity against Staphylococcus aureus ATCC 6538 after 24 hrs by microplate assay; format: functional
[2] = tested on: Escherichia coli; assay: Antimicrobial activity against Escherichia coli ATCC 10536 after 24 hrs by microplate assay; format: functional
[3] = tested on: Staphylococcus aureus; assay: Antimicrobial activity against Staphylococcus aureus ATCC 6538 by disk diffusion method; format: functional
[4] = tested on: Pseudomonas aeruginosa; assay: Antimicrobial activity against Pseudomonas aeruginosa ATCC 15442 after 24 hrs by microplate assay; format: functional, organism-based
[5] = tested on: Enterococcus hirae; assay: Antimicrobial activity against Enterococcus hirae ATCC 10541 after 24 hrs by microplate assay; format: functional, organism-based
[6] = tested on: Escherichia coli; assay: Antimicrobial activity against Escherichia coli ATCC 10536 by disk diffusion method; format: functional
[7] = tested on: Enterococcus hirae; assay: Antimicrobial activity against Enterococcus hirae ATCC 10541 by disk diffusion method; format: functional
[8] = tested on: Pseudomonas aeruginosa; assay: Antimicrobial activity against Pseudomonas aeruginosa ATCC 15442 by disk diffusion method; format: functional
[9] = tested on: Candida tropicalis; assay: Antimicrobial activity against Candida tropicalis IP 2031 after 48 hrs by microplate assay; format: functional; details: IP 2031, 48 h
[10] = tested on: Candida albicans; assay: Antimicrobial activity against Candida albicans ATCC 2091 by disk diffusion method; format: functional
[11] = tested on: Nakaseomyces glabratus; assay: Antimicrobial activity against Candida glabrata ATCC 90030 by disk diffusion method; format: functional
[12] = tested on: Pichia kudriavzevii; assay: Antimicrobial activity against Candida krusei ATCC 6258 by disk diffusion method; format: functional
[13] = tested on: Candida tropicalis; assay: Antimicrobial activity against Candida tropicalis IP 2031 by disk diffusion method; format: functional
[14] = tested on: Staphylococcus aureus; assay: Antimicrobial activity against Staphylococcus aureus ATCC 6538 assessed as minimum microbial concentration after 24 hrs by microplate assay; format: functional
[15] = tested on: Candida tropicalis; assay: Antimicrobial activity against Candida tropicalis IP 2031 assessed as minimum microbial concentration after 24 hrs by microplate assay; format: functional
[16] = tested on: Candida albicans; assay: Antimicrobial activity against Candida albicans ATCC 2091 assessed as minimum microbial concentration after 24 hrs by microplate assay; format: functional
[17] = tested on: Escherichia coli; assay: Antimicrobial activity against Escherichia coli ATCC 10536 after 24 hrs assessed as minimum microbial concentration by microplate assay; format: functional
[18] = tested on: Pichia kudriavzevii; assay: Antimicrobial activity against Candida krusei ATCC 6258 after 48 hrs by microplate assay; format: functional; details: ATCC 6258, 48 h
[19] = tested on: Nakaseomyces glabratus; assay: Antimicrobial activity against Candida glabrata ATCC 90030 after 48 hrs by microplate assay; format: functional; details: ATCC 90030, 48 h
[20] = tested on: Candida albicans; assay: Antimicrobial activity against Candida albicans ATCC 2091 after 48 hrs by microplate assay; format: functional; details: ATCC 2091, 48 h
[21] = tested on: Pichia kudriavzevii; assay: Antimicrobial activity against Candida krusei ATCC 6258 assessed as minimum microbial concentration after 48 hrs by microplate assay; format: functional
[22] = tested on: Nakaseomyces glabratus; assay: Antimicrobial activity against Candida glabrata ATCC 90030 assessed as minimum microbial concentration after 48 hrs by microplate assay; format: functional

| Molecule | MIC [9] [µg/mL] | diameter of the inhibition zone (DIZ) [3] | diameter of the inhibition zone (DIZ) [10] | diameter of the inhibition zone (DIZ) [6] | diameter of the inhibition zone (DIZ) [11] | diameter of the inhibition zone (DIZ) [7] | diameter of the inhibition zone (DIZ) [8] | diameter of the inhibition zone (DIZ) [12] | diameter of the inhibition zone (DIZ) [13] [mm] | Activity [14] [µg/mL] | MIC ([1]; ATCC 6538, 24 h) [µg/mL] | MIC [18] [µg/mL] | MIC [19] [µg/mL] | MIC [20] [µg/mL] | also measured |
| --- | --- | --- | --- | --- | --- | --- | --- | --- | --- | --- | --- | --- | --- | --- | --- |
| COLISTIN | – | – | – | – | – | – | – | – | – | – | – | – | – | – | MIC [1]: 0.4 µg/mL; MIC [2]: 8.12 µg/mL |
| GENTAMICIN | – | – | – | – | – | – | – | – | – | – | – | – | – | – | inhibition zone (IZ) [3]: 20 mm; MIC [4]: 8.12 µg/mL; MIC [5]: 25 µg/mL; inhibition zone (IZ) [6]: 19 mm; inhibition zone (IZ) [7]: 18 mm; inhibition zone (IZ) [8]: 19 mm |
| CCOC(=O)/C=C/c1nc2sccn2c1[N+](=O)[O-] | 15.6 (≈ 58.4 µM) | inactive | inactive | inactive | inactive | inactive | inactive | inactive | 21 | – | – | – | – | – | – |
| O=[N+]([O-])c1c(CCl)nc2sccn12 | 15.6 (≈ 71.7 µM) | 18 mm | 16 mm | 14 mm | 18 mm | 11 mm | 11 mm | 20 mm | 25 | 250 | 125 (≈ 574 µM) | 62.5 (≈ 287 µM) | 62.5 (≈ 287 µM) | 62.5 (≈ 287 µM) | Activity [15]: 15.6 µg/mL; Activity [16]: 62.5 µg/mL; Activity [17]: 250 µg/mL; MIC ([2]; ATCC 10536, 24 h): 125 µg/mL (≈ 574 µM); Activity [21]: 62.5 µg/mL; Activity [22]: 62.5 µg/mL |
| CN1C(=O)C(O)(Cc2nc3sccn3c2[N+](=O)[O-])c2ccccc21 (stereo not drawn) | 125 (≈ 363 µM) | inactive | inactive | inactive | inactive | inactive | inactive | inactive | 12 | – | – | – | – | – | – |
| O=C1Nc2ccccc2C1(O)Cc1nc2sccn2c1[N+](=O)[O-] (stereo not drawn) | 62.5 (≈ 189 µM) | 10 mm | inactive | inactive | inactive | inactive | 9 mm | inactive | 8 | 500 | 500 (≈ 1510 µM) | > 500 | > 500 | 500 (≈ 1510 µM) | – |
| Cc1nc2sccn2c1[N+](=O)[O-] | 31.2 (≈ 170 µM) | inactive | inactive | inactive | inactive | inactive | inactive | inactive | 8 | – | – | > 500 | > 500 | > 500 | – |
| COC(=O)C(O)(Cc1nc2sccn2c1[N+](=O)[O-])C(F)(F)F (stereo not drawn) | 3.9 (≈ 11.5 µM) | inactive | inactive | inactive | inactive | inactive | inactive | inactive | 33 | – | – | – | – | – | – |
| C[C@@H]1[C@H](O)[C@@H](C)/C=C/C=C/C=C/C=C/C=C/C=C/C=C/[C@H](O[C@@H]2O[C@H](C)[C@@H](O)[C@H](N)[C@@H]2O)C[C@@H]2O[C@](O)(C[C@@H](O)C[C@@H](O)[C@H](O)CC[C@@H](O)C[C@@H](O)CC(=O)O[C@H]1C)C[C@H](O)[C@H]2C(=O)O [AMPHOTERICIN B] | 12.5 (≈ 13.5 µM) | – | 22 mm | – | 22 mm | – | – | 18 mm | 8 | – | – | 0.62 (≈ 0.671 µM) | 0.31 (≈ 0.335 µM) | 0.16 (≈ 0.173 µM) | – |
| CC(=O)N1C(=O)C(O)(Cc2nc3sccn3c2[N+](=O)[O-])c2ccccc21 (stereo not drawn) | 14 (≈ 37.6 µM) | 16 mm | inactive | inactive | inactive | inactive | inactive | inactive | 14 | 62.5 | 31.2 (≈ 83.8 µM) | – | – | – | – |
| O=[N+]([O-])c1c(CBr)nc2sccn12 | 15.6 (≈ 59.5 µM) | 18 mm | 17 mm | 9 mm | 20 mm | 11 mm | 11 mm | 23 mm | 29 | 250 | 125 (≈ 477 µM) | 62.5 (≈ 238 µM) | 125 (≈ 477 µM) | 125 (≈ 477 µM) | Activity [15]: 15.6 µg/mL; Activity [16]: 125 µg/mL; Activity [21]: 62.5 µg/mL; Activity [22]: 250 µg/mL |
